Results as given in ChEMBL document CHEMBL4152218, “Novel hydrazide-hydrazone and amide substituted coumarin derivatives: Synthesis, cytotoxicity screening, microarray, radiolabeling and in vivo pharmacokinetic studies” (Eur J Med Chem, 2018).

Assays:
PANC-1 = assay: Antiproliferative activity against human PANC1 cells after 48 hrs by resazurin dye-based fluorescence assay; assay type: functional, cell-based; conditions: PANC-1, 48 h
HepG2 = assay: Antiproliferative activity against human HepG2 cells after 48 hrs by resazurin dye-based fluorescence assay; assay type: functional, cell-based; conditions: HepG2, 48 h
CCRF-CEM = assay: Antiproliferative activity against human CCRF-CEM cells after 48 hrs by resazurin dye-based fluorescence assay; assay type: functional, cell-based
hTERT-BJ [1] = assay: Cytotoxicity against hTERT-BJ cells after 48 hrs by resazurin dye-based fluorescence assay; assay type: cell-based; conditions: Homo sapiens
[2] = Selectivity index, ratio of IC50 for hTERT-RPE1 cells to IC50 for human PANC1 cells; assay type: toxicity; conditions: hTERT-RPE1 cells versus PANC1 cells, read-out: Ratio IC50
[3] = Selectivity index, ratio of IC50 for hTERT-BJ cells to IC50 for human PANC1 cells; assay type: toxicity; conditions: hTERT-BJ cells versus PANC1 cells, read-out: Ratio IC50
[4] = Selectivity index, ratio of IC50 for hTERT-RPE1 cells to IC50 for human HepG2 cells; assay type: toxicity; conditions: hTERT-RPE1 cells versus HepG2 cells, read-out: Ratio IC50
[5] = Selectivity index, ratio of IC50 for hTERT-BJ cells to IC50 for human HepG2 cells; assay type: toxicity; conditions: hTERT-BJ cells versus HepG2 cells, read-out: Ratio IC50
[6] = Selectivity index, ratio of IC50 for hTERT-RPE1 cells to IC50 for human CCRF-CEM cells; assay type: toxicity; conditions: hTERT-RPE1 cells versus CCRF-CEM cells, read-out: Ratio IC50
[7] = Selectivity index, ratio of IC50 for hTERT-BJ cells to IC50 for human CCRF-CEM cells; assay type: toxicity; conditions: hTERT-BJ cells versus CCRF-CEM cells, read-out: Ratio IC50
TERT-RPE1 [8] = assay: Cytotoxicity against hTERT-RPE1 cells after 48 hrs by resazurin dye-based fluorescence assay; assay type: cell-based; conditions: Homo sapiens, RPE-1, 48 h
hTERT-BJ [9] = assay: Cytotoxicity against hTERT-BJ cells at 6.25 uM after 48 hrs by resazurin dye-based fluorescence assay relative to control; assay type: cell-based; conditions: human
hTERT-BJ [10] = assay: Cytotoxicity against hTERT-BJ cells at 12.50 uM after 48 hrs by resazurin dye-based fluorescence assay relative to control; assay type: cell-based; conditions: human, 12.5 µM
hTERT-BJ [11] = assay: Cytotoxicity against hTERT-BJ cells at 25 uM after 48 hrs by resazurin dye-based fluorescence assay relative to control; assay type: cell-based; conditions: human
hTERT-BJ [12] = assay: Cytotoxicity against hTERT-BJ cells at 50 uM after 48 hrs by resazurin dye-based fluorescence assay relative to control; assay type: cell-based; conditions: human
TERT-RPE1 [13] = assay: Cytotoxicity against hTERT-RPE1 cells at 6.25 uM after 48 hrs by resazurin dye-based fluorescence assay relative to control; assay type: cell-based; conditions: human, tert-rpe1, 48 h
TERT-RPE1 [14] = assay: Cytotoxicity against hTERT-RPE1 cells at 12.50 uM after 48 hrs by resazurin dye-based fluorescence assay relative to control; assay type: cell-based; conditions: human, tert-rpe1, 48 h, 12.5 µM
TERT-RPE1 [15] = assay: Cytotoxicity against hTERT-RPE1 cells at 25 uM after 48 hrs by resazurin dye-based fluorescence assay relative to control; assay type: cell-based; conditions: human, tert-rpe1, 48 h
TERT-RPE1 [16] = assay: Cytotoxicity against hTERT-RPE1 cells at 50 uM after 48 hrs by resazurin dye-based fluorescence assay relative to control; assay type: cell-based; conditions: human, tert-rpe1, 48 h

For O=C(N/N=C/c1cc2ccccc2nc1Cl)c1cc2cc([N+](=O)[O-])ccc2oc1=O, the IC50 (PANC-1) was 38.8 µM, the IC50 (HepG2) was 22.8 µM and the IC50 (CCRF-CEM) was 26 µM. For the same molecule, the IC50 (hTERT-BJ [1]) was greater than 50 µM, the selectivity ratio [2] was greater than 1.29 and the selectivity ratio [3] was greater than 1.29. It also gave a selectivity ratio [4] greater than 2.2, a selectivity ratio [5] greater than 2.2 and a selectivity ratio [6] greater than 1.92. The selectivity ratio [7] was greater than 1.92, the IC50 (TERT-RPE1 [8]) was greater than 50 µM and the Activity (hTERT-BJ [9]) was 1.2%. It also gave an Activity (hTERT-BJ [10]) of 1.37%, an Activity (hTERT-BJ [11]) of 1.77% and an Activity (hTERT-BJ [12]) of 2.73%. It also gave an Activity (TERT-RPE1 [13]) of 1.3%, an Activity (TERT-RPE1 [14]) of 0.73% and an Activity (TERT-RPE1 [15]) of 1.96%. It also gave an Activity (TERT-RPE1 [16]) of 2.33%.

Cc1noc(NS(=O)(=O)c2ccc(NC(=O)c3cc4cc([N+](=O)[O-])ccc4oc3=O)cc2)c1C gave an IC50 (PANC-1) of 11.9 µM, an IC50 (HepG2) of 15 µM and an IC50 (CCRF-CEM) of 14.3 µM. The IC50 (hTERT-BJ [1]) was greater than 50 µM, the selectivity ratio [2] was greater than 4.19 and the selectivity ratio [3] was greater than 4.19. The selectivity ratio [4] was greater than 3.34, the selectivity ratio [5] was greater than 3.34 and the selectivity ratio [6] was greater than 3.49. The selectivity ratio [7] was greater than 3.49, the IC50 (TERT-RPE1 [8]) was greater than 50 µM and the Activity (hTERT-BJ [9]) was 2.53%. For the same molecule, the Activity (hTERT-BJ [10]) was 4.43%, the Activity (hTERT-BJ [11]) was 7.18% and the Activity (hTERT-BJ [12]) was 10.27%. The Activity (TERT-RPE1 [13]) was 1.27%, the Activity (TERT-RPE1 [14]) was 2.5% and the Activity (TERT-RPE1 [15]) was 4.79%. For the same molecule, the Activity (TERT-RPE1 [16]) was 4.06%.

With O=C(N/N=C/c1ccncc1)c1cc2cc([N+](=O)[O-])ccc2oc1=O the IC50 (PANC-1) was 26.1 µM, the IC50 (HepG2) was 15.8 µM and the IC50 (CCRF-CEM) was 13 µM. For the same molecule, the IC50 (hTERT-BJ [1]) was greater than 50 µM, the selectivity ratio [2] was greater than 1.92 and the selectivity ratio [3] was greater than 1.92. For the same molecule, the selectivity ratio [4] was greater than 3.15, the selectivity ratio [5] was greater than 3.15 and the selectivity ratio [6] was greater than 3.86. For the same molecule, the selectivity ratio [7] was greater than 3.86, the IC50 (TERT-RPE1 [8]) was greater than 50 µM and the Activity (hTERT-BJ [9]) was 0.78%. For the same molecule, the Activity (hTERT-BJ [10]) was 5.5%, the Activity (hTERT-BJ [11]) was 6.48% and the Activity (hTERT-BJ [12]) was 7.55%. For the same molecule, the Activity (TERT-RPE1 [13]) was 6.97%, the Activity (TERT-RPE1 [14]) was 10.1% and the Activity (TERT-RPE1 [15]) was 11.23%. The Activity (TERT-RPE1 [16]) was 13.97%.

With Cc1noc(NS(=O)(=O)c2ccc(NC(=O)c3cc4cc(Br)ccc4oc3=O)cc2)c1C the IC50 (PANC-1) was 28.7 µM, the IC50 (HepG2) was 8.8 µM and the IC50 (CCRF-CEM) was 14.6 µM. The IC50 (hTERT-BJ [1]) was greater than 50 µM, the selectivity ratio [2] was greater than 1.74 and the selectivity ratio [3] was greater than 1.74. It also gave a selectivity ratio [4] greater than 5.68, a selectivity ratio [5] greater than 5.68 and a selectivity ratio [6] greater than 3.43. It also gave a selectivity ratio [7] greater than 3.43, an IC50 (TERT-RPE1 [8]) greater than 50 µM and an Activity (hTERT-BJ [9]) of 0.95%. For the same molecule, the Activity (hTERT-BJ [10]) was 1.2%, the Activity (hTERT-BJ [11]) was 3.04% and the Activity (hTERT-BJ [12]) was 13.26%. For the same molecule, the Activity (TERT-RPE1 [13]) was 1.84%, the Activity (TERT-RPE1 [14]) was 10.36% and the Activity (TERT-RPE1 [15]) was 12.79%. The Activity (TERT-RPE1 [16]) was 26.26%.

With COc1cccc2c1C(=O)c1c(O)c3c(c(O)c1C2=O)C[C@@](O)(C(=O)CO)C[C@@H]3O[C@H]1C[C@H](N)[C@H](O)[C@H](C)O1 [DOXORUBICIN] the IC50 (PANC-1) was 6.9 µM, the IC50 (HepG2) was 5.43 µM and the IC50 (CCRF-CEM) was 1.05 µM. It also gave an IC50 (hTERT-BJ [1]) of less than 6.25 µM, a selectivity ratio [2] of less than 0.91 and a selectivity ratio [3] of less than 0.91. For the same molecule, the selectivity ratio [4] was less than 1.15, the selectivity ratio [5] was less than 1.15 and the selectivity ratio [6] was less than 5.95. The selectivity ratio [7] was less than 5.95 and the IC50 (TERT-RPE1 [8]) was less than 6.25 µM.

O=C(N/N=C/c1cccnc1)c1cc2ccc(O)cc2oc1=O showed an IC50 (PANC-1) of 2.52 µM, an IC50 (HepG2) of 18.4 µM and an IC50 (CCRF-CEM) of 14.1 µM. The IC50 (hTERT-BJ [1]) was greater than 50 µM, the selectivity ratio [2] was greater than 19.8 and the selectivity ratio [3] was greater than 19.8. It also gave a selectivity ratio [4] greater than 2.72, a selectivity ratio [5] greater than 2.72 and a selectivity ratio [6] greater than 3.55. It also gave a selectivity ratio [7] greater than 3.55, an IC50 (TERT-RPE1 [8]) greater than 50 µM and an Activity (hTERT-BJ [9]) of 0.5%. It also gave an Activity (hTERT-BJ [10]) of 1.26%, an Activity (hTERT-BJ [11]) of 1.99% and an Activity (hTERT-BJ [12]) of 2.27%. For the same molecule, the Activity (TERT-RPE1 [13]) was 8.83%, the Activity (TERT-RPE1 [14]) was 12.79% and the Activity (TERT-RPE1 [15]) was 14.34%. It also gave an Activity (TERT-RPE1 [16]) of 20.79%.
